We go through 1 compound from patent US12528805B2, “Solid forms of emetine” (Acer Therapeutics, Inc., priority 2020, dated 2026).

Structures can show the parent of a compound that is named as a salt.

The nature of the data set: Thermodynamic solubility study (HPLC of mother liquors). To be noted: thermodynamic from solid. It counts as physicochemical. Here is the method:
To obtain accurate solubility and residual solid form data for amorphous Compound I dihydrochloride, thermodynamic solubility studies were carried out on amorphous input material in selected solvent systems at 50° C. and 5° C. (Table 6).

Usually thermodynamic solubility stands for the concentration in solution at equilibrium with solid. `CC[C@H]1CN2CCc3cc(OC)c(OC)cc3[C@@H]2C[C@@H]1C[C@H]1NCCc2cc(OC)c(OC)cc21` [Amorphous Compound I dihydrochloride]: the solubility (thermodynamic) at 23 h (organic solvent or mixture, 2-propanol:heptane 70:30 v/v, 5° C.) was below 10 mg/mL; the thermodynamic solubility at 23 h (organic solvent or mixture, 2-propanol:heptane 70:30 v/v, 50° C.) was around 20 mg/mL; the solubility (thermodynamic) at 23 h (organic solvent or mixture, 2-propanol:heptane 90:10 v/v, 5° C.) fell in the range of 10 to 40 mg/mL; the solubility (thermodynamic) at 23 h (organic solvent or mixture, 2-propanol:heptane 90:10 v/v, 50° C.) lay in the range of 40 to 115 mg/mL; the thermodynamic solubility at 23 h (organic solvent or mixture, 2-propanol:water 95:5 v/v, 5° C.) is 10 to 40 mg/mL; the solubility (thermodynamic) at 23 h (organic solvent or mixture, 2-propanol:water 95:5 v/v, 50° C.) was in the range of 40 to 115 mg/mL. Besides, the thermodynamic solubility at 23 h (organic solvent or mixture, 2-propanol:water 99:1 v/v, 5° C.) fell in the range of 10 to 40 mg/mL; the thermodynamic solubility at 23 h (organic solvent or mixture, 2-propanol:water 99:1 v/v, 50° C.) was 40 to 115 mg/mL; the solubility (thermodynamic) at 23 h (organic solvent or mixture, 2-propanol, 5° C.) was in the range of 10 to 40 mg/mL; the thermodynamic solubility at 23 h (organic solvent or mixture, 2-propanol, 50° C., experiment remained unsaturated) was above 215 mg/mL; the solubility (thermodynamic) at 23 h (organic solvent or mixture, acetone:water 60:40 v/v, 5° C., experiment remained unsaturated) was above 125 mg/mL; the solubility (thermodynamic) at 23 h (organic solvent or mixture, acetone:water 60:40 v/v, 50° C., experiment remained unsaturated) was above 215 mg/mL. For the same compound, the solubility (thermodynamic) at 23 h is, setting by setting: (organic solvent or mixture, acetone:water 70:30 v/v, 5° C., experiment remained unsaturated) above 125 mg/mL; (organic solvent or mixture, acetone:water 70:30 v/v, 50° C., experiment remained unsaturated) above 215 mg/mL; (organic solvent or mixture, acetone:water 90:10 v/v, 5° C.) 10 to 40 mg/mL; (organic solvent or mixture, acetone:water 90:10 v/v, 50° C.) 40 to 115 mg/mL; (organic solvent or mixture, ethanol:heptane 60:40 v/v, 5° C.) below 10 mg/mL; (organic solvent or mixture, ethanol:heptane 60:40 v/v, 50° C.) 40 to 115 mg/mL. Further, the thermodynamic solubility at 23 h reads like this: (organic solvent or mixture, ethanol:heptane 80:20 v/v, 5° C.) 10 to 40 mg/mL; (organic solvent or mixture, ethanol:heptane 80:20 v/v, 50° C., experiment remained unsaturated) above 215 mg/mL; (organic solvent or mixture, ethanol, 5° C.) 10 to 40 mg/mL; (organic solvent or mixture, ethanol, 50° C., experiment remained unsaturated) above 215 mg/mL; (water, 5° C.) 65 mg/mL; (water, 50° C., experiment remained unsaturated) above 215 mg/mL.
